{"source": "patent US4459291A", "about": "“Compounds having antibiotic activity, processes for their preparation, pharmaceutical compositions containing them and their use as medicaments” (priority 1981, dated 1984)", "key": {"[1]": {"system": "Staphylococcus aureus ATCC 6538P", "experiment": "Antibacterial activity by agar dilution method at pH 7.0", "assay_type": "cell-based", "details": "ATCC6538P"}, "[2]": {"system": "Bacillus subtilis No. 10707", "experiment": "Antibacterial activity by agar dilution method at pH 7.0", "assay_type": "cell-based"}, "[3]": {"system": "Klebsiella pneumoniae ATCC 10031", "experiment": "Antibacterial activity by agar dilution method at pH 7.0", "assay_type": "cell-based"}, "[4]": {"system": "Salmonella typhosa ATCC 9992", "experiment": "Antibacterial activity by agar dilution method at pH 7.0", "assay_type": "cell-based", "details": "Salmonella enterica"}, "Escherichia coli ATCC 26": {"system": "Escherichia coli ATCC 26", "experiment": "Antibacterial activity by agar dilution method at pH 7.0", "assay_type": "cell-based"}, "LD50 (acute toxicity)": {"experiment": "LD50 (acute toxicity)", "details": "in vivo"}, "Solubility": {"experiment": "Solubility", "details": "solvents named in the value"}}, "note": "“Also recorded” adds a separate entry of the source. Like-named read-outs stand apart in the source and are kept apart here."}
{"smiles": "COc1c2c(c(O)c3c4c(c(C)cc13)C1OC3(C(OC)OC)OC1C(O)(O4)C31CO1)C(=O)C(O)CC2OC1CC(C)(O)C(OC(C)=O)C(C)O1", "note": "(stereo not shown) [DC-45-A1]", "values": [{"measurement": "MIC", "setting": "[1]; Staphylococcus aureus, pH 7, read-out: Minimum Inhibitory Concentration", "value": 0.4, "unit": "µg/mL"}, {"measurement": "MIC", "setting": "[2]; Bacillus subtilis, NO.10707, pH 7, read-out: Minimum Inhibitory Concentration", "value": 0.04, "unit": "µg/mL"}, {"measurement": "MIC", "setting": "[3]; Klebsiella pneumoniae, ATCC10031, pH 7, read-out: Minimum Inhibitory Concentration", "value": 0.4, "unit": "µg/mL"}, {"measurement": "MIC", "setting": "[4]; pH 7, read-out: Minimum Inhibitory Concentration", "value": 50, "unit": "µg/mL"}, {"measurement": "MIC", "setting": "Escherichia coli ATCC 26; Escherichia coli, ATCC26, pH 7, read-out: Minimum Inhibitory Concentration", "value": 12, "unit": "µg/mL"}, {"measurement": "LD50", "setting": "LD50 (acute toxicity); ip", "value": 0.375, "unit": "mg/kg"}, {"measurement": "LD50", "setting": "LD50 (acute toxicity); iv", "value": 0.375, "unit": "mg/kg"}, {"measurement": "Solubility", "setting": "Solubility", "value": "Soluble in methanol, ethanol, acetone, ethyl acetate and chloroform; also recorded: soluble with difficulty in benzene and aqueous ether; also recorded: insoluble in n-hexane"}]}
{"smiles": "COc1c2c(c(O)c3c4c(c(C)cc13)C1OC3(C(OC)OC)OC1C(O)(O4)C31CO1)C(=O)C(O)CC2O", "note": "(stereo not shown) [DC-45-A2]", "values": [{"measurement": "MIC", "setting": "[1]; Staphylococcus aureus ATCC 6538P, agar dilution, pH 7.0, read-out: Minimum Inhibitory Concentration", "value": 100, "unit": "µg/mL"}, {"measurement": "MIC", "setting": "[2]; Bacillus subtilis No. 10707, agar dilution, pH 7.0, read-out: Minimum Inhibitory Concentration", "value": 100, "unit": "µg/mL"}, {"measurement": "MIC", "setting": "[3]; ATCC10031, Klebsiella pneumoniae ATCC 10031, agar dilution, pH 7.0, read-out: Minimum Inhibitory Concentration", "value": 12, "unit": "µg/mL"}, {"measurement": "MIC", "setting": "[4]; Salmonella typhosa ATCC 9992, agar dilution, pH 7.0, read-out: Minimum Inhibitory Concentration", "value": 50, "unit": "µg/mL"}, {"measurement": "MIC", "setting": "Escherichia coli ATCC 26; ATCC26, Escherichia coli ATCC 26, agar dilution, pH 7.0, read-out: Minimum Inhibitory Concentration", "value": 25, "unit": "µg/mL"}, {"measurement": "LD50", "setting": "LD50 (acute toxicity); ip", "value": 5.8, "unit": "mg/kg"}, {"measurement": "LD50", "setting": "LD50 (acute toxicity); iv", "value": 14, "unit": "mg/kg"}, {"measurement": "Solubility", "setting": "Solubility", "value": "Soluble in methanol, ethanol, acetone, ethyl acetate and chloroform; also recorded: soluble with difficulty in benzene, ether and water; also recorded: insoluble in n-hexane"}]}
